Measurements as given in patent US8598118B2, “Hepatocyte growth factor mimics as therapeutic agents” (Washington State University, priority 2011, dated 2013).
Several values for one entry are separate records, joined by “and”; a condition that tells them apart may be missing. Identical values can stand only once.

Columns and labels:
[1] = system: hippocampal neurons; assay: Spinogenesis in mRFP-β-actin transfected dissociated hippocampal neurons; type: cell-based, rat; conditions: 5 days
Method: (§1) Hippocampal neurons (2×10^5 cells per square cm) were cultured from P1 Sprague Dawley rats on plates coated with poly-L-lysine from Sigma (St. Louis, Mo.; molecular weight 300,000). Hippocampal neurons were maintained in Neurobasal A media from Invitrogen (Carlsbad, Calif.) supplemented with B27 from Invitrogen, 0.5 mM L-glutamine, and […] cytosine-D-arabinofuranoside from Sigma added at 2 days in vitro. Hippocampal neurons were then cultured a further 3-7 days, at which time they were either transfected or treated with various pharmacological reagents as described in (Wayman, Davare et al. 2008).
Neurons were transfected with mRFP-β-actin on day in vitro 6 (DIV6) using LipofectAMINE™ 2000 (Invitrogen) according to the manufacturer's protocol. This protocol yielded the desired 3-5% transfection efficiency thus enabling the visualization of individual neurons. Higher efficiencies obscured the dendritic arbor of individual neurons. Expression of fluorescently tagged actin allowed clear visualization of dendritic spines, as dendritic spines are enriched in actin. On DIV7 the cells were treated with vehicle (H20) or peptides (as described in the text) added to media. On DIV 12 the neurons were fixed (4% paraformaldehyde, 3% sucrose, 60 mM PIPES, 25 mM HEPES, 5 mM EGTA, 1 mM MgCl2, pH 7.4) for 20 min at room temperature and mounted. Slides were dried for at least 20 hours at 4° C. and fluorescent images were obtained with Slidebook 4.2 Digital Microscopy Software driving an Olympus IX81 inverted confocal microscope with a 60× oil immersion lens, NA 1.4 and resolution 0.280 μm Dendritic spine density was measured on primary and secondary dendrites at a distance of at least 150 μm from the soma. Five 50 μm long segments of dendrite from at least 10 neurons per data point were analyzed for each data point reported. Each experiment was repeated at least three times using independent culture preparations. Dendrite length was determined using the National Institutes of Health's Image J 1.41o program (NIH, Bethesda, Md.) and the neurite tracing program Neuron J (Meijering, Jacob et al. 2004) Spines were manually counted.
as §1, with “centimeter)” for “cm)”, “P1-2” for “P1”, “the text or figure legends.” for “(Wayman, Davare et al. 2008).”

[2] = system: c-Met receptor; assay: c-Met phosphorylation in acute adult rat hippocampal slices; type: cell-based; conditions: 30 minutes
Source text: Adult Sprague-Dawley rats (250 g+) obtained from Harlan Laboratories (Ca, USA) were anesthetized with isofluorane (Vet One™, MWI, Meridian, Id., USA) and decapitated. The brain was rapidly removed and placed into ice-chilled artificial cerebrospinal fluid (aCSF) for approximately 30 s. Both hemispheres were separated by a mid-saggital cut and both hippocampi removed. Slices were sectioned cross- and length-wise (400 μm) to ensure penetrability of the drug, using a McIlwain tissue chopper (Brinkmann, Gomshall, UK) and transferred to a gassed (95% O2/5% CO2) incubation chamber containing aCSF for 90 minutes at room temperature. […]
Protein concentration of the samples was quantified using the BCA method (Pierce, Rockford, Ill.) following the manufacturers protocol. […]

HGF: carrier free adult recombinant Hepatocyte Growth Factor (R and D Systems)
mean spine numbers ([1]; HGF 2.5 ng/ml): 18.6 and 16.5 | mean spine numbers ([1]; HGF 5 ng/ml): 24.7 | mean spine numbers per 50 μm dendrite length ([1]; HGF 10 ng/ml): 27.5 and 33 and 29.3 | mean spine numbers ([1]; HGF 20 ng/ml): 27.0 | c-Met phosphorylation vs control (aCSF) slices ([2]; HGF 50 ng/ml (non-saturating)): not statistically different from control treated slices | c-Met phosphorylation vs control (aCSF) slices ([2]; HGF 100 ng/ml (saturating)): increased c-Met phosphorylation
